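Five compound concentrations were applied to cells in 96-well plates for 48 hours; endpoints were derived by simple linear interpolation of the resulting dose-response curve. Here, GI50 denotes the concentration required for 50% inhibition of growth. The concentration for full growth arrest is given as TGI.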
Legend:
Assay in all cases: NCI anticancer screen, dose series, 48 h
NCI-H226 lung = tested on: NCI-H226 lung
SK-OV-3 ovarian = tested on: SK-OV-3 ovarian
EKVX NSCLC = tested on: EKVX NSCLC
OVCAR-3 ovarian = tested on: OVCAR-3 ovarian
A549 NSCLC = tested on: A549 NSCLC
LOX IMVI melanoma = tested on: LOX IMVI melanoma
NCI-H522 lung = tested on: NCI-H522 lung
HT29 colon = tested on: HT29 colon
UACC-257 melanoma = tested on: UACC-257 melanoma
OVCAR-4 ovarian = tested on: OVCAR-4 ovarian

| SMILES | TGI (NCI-H226 lung) | TGI (SK-OV-3 ovarian) | TGI (EKVX NSCLC) | TGI (OVCAR-3 ovarian) | TGI (A549 NSCLC) | TGI (LOX IMVI melanoma) | TGI (NCI-H522 lung) | TGI (HT29 colon) | TGI (UACC-257 melanoma) | TGI (OVCAR-4 ovarian) | GI50 (NCI-H226 lung) | GI50 (SK-OV-3 ovarian) | GI50 (UACC-257 melanoma) | GI50 (OVCAR-4 ovarian) | GI50 (OVCAR-3 ovarian) | GI50 (A549 NSCLC) | GI50 (LOX IMVI melanoma) | GI50 (NCI-H522 lung) | GI50 (HT29 colon) | GI50 (EKVX NSCLC) |
| --- | --- | --- | --- | --- | --- | --- | --- | --- | --- | --- | --- | --- | --- | --- | --- | --- | --- | --- | --- | --- |
| [N-]=[N+]=NC(CI)c1cn([C@H]2C[C@H](O)[C@@H](CO)O2)c(=O)[nH]c1=O (stereo not given in full) | > 100 µM | > 100 µM | > 100 µM | > 100 µM | > 100 µM | > 100 µM | > 100 µM | > 100 µM |  |  |  |  |  |  |  |  |  |  |  |  |
| COc1ccc(/C=C2\S/C(=N/Nc3nc(-c4ccccc4)cs3)NC2=O)cc1OC |  | 63.7 µM | 98.4 µM | 55.8 µM | > 100 µM | 65.6 µM | 47.4 µM |  | > 100 µM | 98.1 µM |  |  |  |  |  |  |  |  |  |  |
| Cc1ccccc1NC(=O)C(=O)CC(=O)c1c(C)n([O-])c2ccccc2[n+]1=O | > 100 µM | > 100 µM | > 100 µM | > 100 µM | > 100 µM |  |  | > 100 µM | > 100 µM | > 100 µM |  |  |  |  |  |  |  |  |  |  |
| C/C=C(/COC(C)=O)C(=O)OC1C=C(C=O)C(C)(C)C=C1C (stereo not given) | > 100 µM | > 100 µM | > 100 µM |  | > 100 µM | > 100 µM | > 100 µM | > 100 µM | > 100 µM | > 100 µM |  |  |  |  |  |  |  |  |  |  |
| C=C1c2[nH]c3c([N+](=O)[O-])c(OC)ccc3c2CCN1C(C)=O | > 100 µM |  | > 100 µM | > 100 µM | > 100 µM | > 100 µM | > 100 µM | > 100 µM | > 100 µM | > 100 µM |  |  |  |  |  |  |  |  |  |  |
| CN1c2ccccc2N(C)C23N(C)c4ccccc4N(C)C12N(C)c1ccccc1N3C (stereo not given) | > 100 µM |  | > 100 µM | > 100 µM | > 100 µM | > 100 µM | > 100 µM | > 100 µM | > 100 µM |  |  |  |  |  |  |  |  |  |  |  |
| Cc1ccc(S(=O)(=O)Nc2cccc3[nH]c(C(F)(F)F)nc23)cc1 | 29.1 µM | 25 µM |  | > 100 µM | > 45.8 µM | > 100 µM | 0.696 µM | 7.31 µM | > 42 µM | 80.9 µM | 3.73 µM | 1.34 µM | 1.32 µM | 1.54 µM | 0.426 µM | 0.653 µM | 0.829 µM | 0.15 µM | 0.351 µM |  |
| C1CN(SSN2CCOCC2)CCO1 | > 100 µM | > 100 µM | > 100 µM | 89.2 µM | > 100 µM |  | 64.8 µM | 43.1 µM | > 100 µM | > 100 µM | > 100 µM | > 100 µM | 62.8 µM | 39.6 µM | 32.3 µM | 78.6 µM |  | 22.2 µM | 19.9 µM | > 100 µM |
| Cc1ccc(N2C(=O)C3C=CC(n4[nH]c(=O)n(Cc5ccccc5)c4=O)CC3C2=O)cc1 (stereo not given) | > 100 µM | > 100 µM | > 100 µM | > 100 µM | > 100 µM | > 100 µM | > 100 µM | > 100 µM | > 100 µM |  |  |  |  |  |  |  |  |  |  |  |
| O=C(Nc1ccc(Cl)c(Cl)c1)O/N=C\c1c(Cl)ccc([N+](=O)[O-])c1Cl | 12.4 µM | 17.6 µM |  | 2.76 µM | 10.3 µM | 2.76 µM | 2.88 µM | 3.53 µM | 2.86 µM | 3.14 µM | 3.06 µM | 5.82 µM | 1.46 µM | 1.74 µM | 1.31 µM | 2.96 µM | 1.24 µM | 1.34 µM | 1.91 µM |  |
| C[Si](C)(C)c1ccc(-c2sc(-c3ccc([Si](C)(C)C)s3)c3c2C[Si]2(C3)Cc3c(-c4ccc([Si](C)(C)C)s4)sc(-c4ccc([Si](C)(C)C)s4)c3C2)s1 | > 100 µM | > 100 µM |  | > 100 µM | > 100 µM | > 100 µM | > 100 µM | > 100 µM | > 100 µM | > 100 µM |  |  |  |  |  |  |  |  |  |  |
| CCCOC(=O)N1CCN(/[N+]([O-])=N/Oc2ccc([N+](=O)[O-])cc2[N+](=O)[O-])CC1 | 4.3 µM |  | 7.79 µM | 4.48 µM | 22.4 µM | 1.08 µM | 15.7 µM | > 100 µM | 24.2 µM |  | 1.46 µM |  | 9.52 µM |  | 2.29 µM | 3.85 µM | 0.32 µM | 3.16 µM | 2.05 µM | 2.64 µM |
| CC1(C)C2C=CC1(C)C1(CC2)OCCO1 (stereo not given) | > 100 µM | > 100 µM |  | > 100 µM |  | > 100 µM |  | > 100 µM | > 100 µM | > 100 µM |  |  |  |  |  |  |  |  |  |  |
| CCN(CC)Cc1ccc(Nc2nccc(-c3cnn4ncccc34)n2)cc1 |  | > 25 µM |  | 0.106 µM | > 25 µM | > 25 µM | 0.116 µM | 0.0984 µM | 0.143 µM | 9.99 µM |  | 0.0825 µM | 0.0443 µM | 0.0766 µM | 0.0115 µM | 0.0163 µM | 0.00767 µM | 0.049 µM | 0.0121 µM | 0.0498 µM |
| COC(=O)c1cc(Cl)ccc1NC(=O)c1ccc([N+](=O)[O-])cc1 | 42.5 µM | 42.5 µM | > 100 µM | 31.4 µM | 58.2 µM |  |  | 35.1 µM | > 100 µM | 12.3 µM |  |  |  |  |  |  |  |  |  |  |
| COc1cc(C(=O)NC2CCN(C)CC2)c(F)cc1Nc1ncc2c(n1)N(C1CCCC1)CC(F)(F)C(=O)N2C | 18.7 µM | 1.02 µM |  | 5.87 µM | 2.31 µM | 4.96 µM | < 0.0208 µM | 11.1 µM | 10.9 µM | 14.1 µM | 2.64 µM | < 0.0132 µM | 1.25 µM | 0.396 µM | < 0.0155 µM | < 0.0184 µM | < 0.0186 µM | < 0.01 µM | < 0.01 µM |  |
| Cn1cc(C2=C(c3cccc(OCC(O)CO)c3)C(=O)NC2=O)c2ccccc21 (stereo not given) | > 25 µM | > 25 µM |  | > 25 µM | > 25 µM | > 25 µM | > 25 µM | > 25 µM | > 25 µM | > 25 µM | > 25 µM | > 25 µM | > 25 µM | > 25 µM | > 25 µM | > 25 µM | > 25 µM | > 25 µM | > 25 µM |  |
| COC(=O)C1=CC2C(=O)OC1CC2C#N (stereo not given) | > 100 µM | > 100 µM |  | > 100 µM | > 100 µM | > 100 µM | > 100 µM | > 100 µM | > 100 µM | > 100 µM |  |  |  |  |  |  |  |  |  |  |

Reference: PubChem BioAssay (NCI)
